Assay results reported in ChEMBL document CHEMBL3272271, “Folate antagonists. 13. 2,4-Diamino-6-](alpha,alpha,alpha-trifluoro-m-tolyl)thio]quinazoline and related 2,4-diamino-6-[(phenyl- and naphthyl)thio]quinazolines, a unique class of antimetabolites with extraordinary antimalarial and antibacterial effects” (J Med Chem, 1978).
In brackets after ≈: the same amount, converted by molar mass. Activity calls are given as the source filed them. The rule behind the calls is not given here.

Key:
Plasmodium berghei [1] = test: Ratio of quinine hydrochloride SD90 to compound SD90 for trophozoite-induced Plasmodium berghei infected in mouse assessed as daily dose required to suppression of 90% parasite infection administered with diet for 6 days; type: functional
Staphylococcus aureus [2] = test: Antibacterial activity against Staphylococcus aureus UC-96 by gradient plate test; type: functional
Plasmodium berghei [3] = test: Antimalarial activity against Plasmodium berghei infected in mouse assessed as increase in mean survival days of host at 80 mg/kg, sc administered 72 hrs after infection relative to control; type: functional; settings: route subcutaneous
Escherichia coli = test: Antibacterial activity against Escherichia coli Vogel by gradient plate test; type: functional
Plasmodium berghei [4] = test: Antimalarial activity against Plasmodium berghei infected in mouse assessed as disease cure from parasite infection at 160 mg/kg, sc administered 72 hrs after infection; type: functional, organism-based; parameters: dose 160 mg/kg
Plasmodium berghei [5] = test: Antimalarial activity against Plasmodium berghei infected in mouse assessed as disease cure from parasite infection at 320 mg/kg, sc administered 72 hrs after infection; type: functional, organism-based; parameters: dose 320 mg/kg
Plasmodium gallinaceum [6] = test: Antimalarial activity against trophozoite-induced Plasmodium gallinaceum infected in white leghorn chicken assessed as disease cure from parasite infection at 160 mg/kg, sc administered 72 hrs after infection; type: functional, organism-based; parameters: dose 160 mg/kg
Plasmodium berghei [7] = test: Antimalarial activity against Plasmodium berghei infected in mouse assessed as increase in mean survival days of host at 10 mg/kg, sc administered 72 hrs after infection relative to control; type: functional; settings: route subcutaneous
Plasmodium gallinaceum [8] = test: Antimalarial activity against trophozoite-induced Plasmodium gallinaceum infected in white leghorn chicken assessed as disease cure from parasite infection at 320 mg/kg, sc administered 72 hrs after infection; type: functional, organism-based; parameters: dose 320 mg/kg
Plasmodium falciparum [9] = test: Antimalarial activity against pyrimethamine-sensitive Plasmodium falciparum Vietnam Oak Knoll infected in Aotus trivirgatus owl monkey model assessed as cure from parasite infection at 0.6 mg/kg, po qd for 7 days relative to control; type: functional
Plasmodium gallinaceum [10] = test: Antimalarial activity against trophozoite-induced Plasmodium gallinaceum infected in white leghorn chicken assessed as increase in mean survival days of host at 160 mg/kg, sc administered 72 hrs after infection relative to control; type: functional; settings: route subcutaneous
Plasmodium berghei [11] = test: Antimalarial activity against Plasmodium berghei infected in mouse assessed as increase in mean survival days of host at 20 mg/kg, sc administered 72 hrs after infection relative to control; type: functional; settings: route subcutaneous
Plasmodium gallinaceum [12] = test: Antimalarial activity against sporozoite-induced Plasmodium gallinaceum infected in white leghorn chicken assessed as disease cure from parasite infection at 80 mg/kg, sc administered 72 hrs after infection; type: functional, organism-based; parameters: dose 80 mg/kg
Plasmodium berghei [13] = test: Antimalarial activity against Plasmodium berghei infected in mouse assessed as increase in mean survival days of host at 5 mg/kg, sc administered 72 hrs after infection relative to control; type: functional; settings: route subcutaneous
Plasmodium falciparum [14] = test: Antimalarial activity against chloroquine-susceptible, pyrimethamine-resistant Plasmodium falciparum Malayan Camp infected in Aotus trivirgatus owl monkey model assessed as cure from parasite infection at >2.5 mg/kg, po qd for 7 days relative to control; type: functional
Plasmodium gallinaceum [15] = test: Antimalarial activity against sporozoite-induced Plasmodium gallinaceum infected in white leghorn chicken assessed as increase in mean survival days of host at 80 mg/kg, sc administered 72 hrs after infection relative to control; type: functional; settings: route subcutaneous
Plasmodium berghei [16] = test: Antimalarial activity against Plasmodium berghei infected in mouse assessed as increase in mean survival days of host at 2.5 mg/kg, sc administered 72 hrs after infection relative to control; type: functional; settings: route subcutaneous
Plasmodium berghei [17] = test: Antimalarial activity against trophozoite-induced Plasmodium berghei infected in mouse assessed as daily dose required to suppression of 90% parasite infection administered with diet for 6 days; type: functional
Shigella sonnei = test: Antibacterial activity against Shigella sonnei C-10 by gradient plate test; type: functional
Plasmodium gallinaceum [18] = test: Antimalarial activity against sporozoite-induced Plasmodium gallinaceum infected in white leghorn chicken assessed as disease cure from parasite infection at 160 mg/kg, sc administered 72 hrs after infection; type: functional, organism-based; parameters: dose 160 mg/kg
Plasmodium berghei [19] = test: Antimalarial activity against cycloguanil-resistant Plasmodium berghei assessed as drug resistance; type: functional, organism-based
Enterococcus faecalis = test: Antibacterial activity against Streptococcus faecalis MGH-2 by gradient plate test; type: functional
Plasmodium berghei [20] = test: Antimalarial activity against Plasmodium berghei infected in mouse assessed as increase in mean survival days of host at 40 mg/kg, sc administered 72 hrs after infection relative to control; type: functional; settings: route subcutaneous
Plasmodium berghei [21] = test: Antimalarial activity against Plasmodium berghei infected in mouse assessed as increase in mean survival days of host at 1.25 mg/kg, sc administered 72 hrs after infection relative to control; type: functional; settings: route subcutaneous
Plasmodium berghei [22] = test: Antimalarial activity against Plasmodium berghei infected in mouse assessed as disease cure from parasite infection at 40 mg/kg, sc administered 72 hrs after infection; type: functional, organism-based; parameters: dose 40 mg/kg
Plasmodium falciparum [23] = test: Antimalarial activity against pyrimethamine-sensitive Plasmodium falciparum Vietnam Oak Knoll infected in Aotus trivirgatus owl monkey model assessed as cure from parasite infection at 0.098 to 1.56 mg/kg, po qd for 7 days relative to control; type: functional; settings: dose mg/kg 0.098-1.56
Plasmodium berghei [24] = test: Antimalarial activity against Plasmodium berghei infected in mouse assessed as disease cure from parasite infection at 80 mg/kg, sc administered 72 hrs after infection; type: functional, organism-based; parameters: dose 80 mg/kg
Plasmodium gallinaceum [25] = test: Antimalarial activity against sporozoite-induced Plasmodium gallinaceum infected in white leghorn chicken assessed as disease cure from parasite infection at 320 mg/kg, sc administered 72 hrs after infection; type: functional, organism-based; parameters: dose 320 mg/kg
Plasmodium gallinaceum [26] = test: Antimalarial activity against sporozoite-induced Plasmodium gallinaceum infected in white leghorn chicken assessed as increase in mean survival days of host at 320 mg/kg, sc administered 72 hrs after infection relative to control; type: functional; settings: route subcutaneous
Staphylococcus aureus [27] = test: Antibacterial activity against drug-resistant Staphylococcus aureus S18713 by gradient plate test; type: functional
Plasmodium gallinaceum [28] = test: Antimalarial activity against trophozoite-induced Plasmodium gallinaceum infected in white leghorn chicken assessed as increase in mean survival days of host at 80 mg/kg, sc administered 72 hrs after infection relative to control; type: functional; settings: route subcutaneous
Plasmodium berghei [29] = test: Antimalarial activity against chloroquine-resistant Plasmodium berghei assessed as drug resistance; type: functional, organism-based
Plasmodium falciparum [30] = test: Antimalarial activity against chloroquine-susceptible, pyrimethamine-resistant Plasmodium falciparum Malayan Camp infected in Aotus trivirgatus owl monkey model assessed as cure from parasite infection at 0.39 to 5 mg/kg, po qd for 7 days relative to control; type: functional; settings: dose mg/kg 0.39-5
Pseudomonas aeruginosa = test: Antibacterial activity against Pseudomonas aeruginosa 28 by gradient plate test; type: functional
Plasmodium berghei [31] = test: Antimalarial activity against Plasmodium berghei infected in mouse assessed as disease cure from parasite infection at 640 mg/kg, sc administered 72 hrs after infection; type: functional, organism-based; parameters: dose 640 mg/kg
Plasmodium gallinaceum [32] = test: Antimalarial activity against sporozoite-induced Plasmodium gallinaceum infected in white leghorn chicken assessed as disease cure from parasite infection at 120 mg/kg, sc administered 72 hrs after infection; type: functional, organism-based; parameters: dose 120 mg/kg
Plasmodium gallinaceum [33] = test: Antimalarial activity against sporozoite-induced Plasmodium gallinaceum infected in white leghorn chicken assessed as disease cure from parasite infection at 30 mg/kg, sc administered 72 hrs after infection; type: functional, organism-based; parameters: dose 30 mg/kg
Plasmodium gallinaceum [34] = test: Antimalarial activity against sporozoite-induced Plasmodium gallinaceum infected in white leghorn chicken assessed as increase in mean survival days of host at 30 mg/kg, sc administered 72 hrs after infection relative to control; type: functional; settings: route subcutaneous
Gallus gallus = test: Toxicity in sporozoite-induced Plasmodium gallinaceum infected white leghorn chicken assessed as mortality at 480 mg/kg, sc administered 72 hrs after infection measured up to 6 days; type: organism-based; parameters: dose 480 mg/kg, route subcutaneous; settings: in vivo
Plasmodium berghei [35] = test: Antimalarial activity against Plasmodium berghei infected in mouse assessed as disease cure from parasite infection at 20 mg/kg, sc administered 72 hrs after infection; type: functional, organism-based; parameters: dose 20 mg/kg
Plasmodium gallinaceum [36] = test: Antimalarial activity against sporozoite-induced Plasmodium gallinaceum infected in white leghorn chicken assessed as disease cure from parasite infection at 240 mg/kg, sc administered 72 hrs after infection; type: functional, organism-based; parameters: dose 240 mg/kg
Plasmodium gallinaceum [37] = test: Antimalarial activity against trophozoite-induced Plasmodium gallinaceum infected in white leghorn chicken assessed as increase in mean survival days of host at 120 mg/kg, sc administered 72 hrs after infection relative to control; type: functional; settings: route subcutaneous
Plasmodium gallinaceum [38] = test: Antimalarial activity against trophozoite-induced Plasmodium gallinaceum infected in white leghorn chicken assessed as increase in mean survival days of host at 320 mg/kg, sc administered 72 hrs after infection relative to control; type: functional; settings: route subcutaneous
Plasmodium gallinaceum [39] = test: Antimalarial activity against trophozoite-induced Plasmodium gallinaceum infected in white leghorn chicken assessed as disease cure from parasite infection at 80 mg/kg, sc administered 72 hrs after infection; type: functional, organism-based; parameters: dose 80 mg/kg
Plasmodium gallinaceum [40] = test: Antimalarial activity against sporozoite-induced Plasmodium gallinaceum infected in white leghorn chicken assessed as increase in mean survival days of host at 15 mg/kg, sc administered 72 hrs after infection relative to control; type: functional; settings: route subcutaneous
Plasmodium gallinaceum [41] = test: Antimalarial activity against sporozoite-induced Plasmodium gallinaceum infected in white leghorn chicken assessed as disease cure from parasite infection at 15 mg/kg, sc administered 72 hrs after infection; type: functional, organism-based; parameters: dose 15 mg/kg
Plasmodium gallinaceum [42] = test: Antimalarial activity against sporozoite-induced Plasmodium gallinaceum infected in white leghorn chicken assessed as disease cure from parasite infection at 60 mg/kg, sc administered 72 hrs after infection; type: functional, organism-based; parameters: dose 60 mg/kg
Plasmodium gallinaceum [43] = test: Antimalarial activity against sporozoite-induced Plasmodium gallinaceum infected in white leghorn chicken assessed as disease cure from parasite infection at 480 mg/kg, sc administered 72 hrs after infection; type: functional, organism-based; parameters: dose 480 mg/kg
Plasmodium gallinaceum [44] = test: Antimalarial activity against trophozoite-induced Plasmodium gallinaceum infected in white leghorn chicken assessed as disease cure from parasite infection at 100 mg/kg, sc administered 72 hrs after infection; type: functional, organism-based; parameters: dose 100 mg/kg
Plasmodium berghei [45] = test: Antimalarial activity against Plasmodium berghei infected in mouse assessed as disease cure from parasite infection at 10 mg/kg, sc administered 72 hrs after infection; type: functional, organism-based; parameters: dose 10 mg/kg
Plasmodium gallinaceum [46] = test: Antimalarial activity against trophozoite-induced Plasmodium gallinaceum infected in white leghorn chicken assessed as increase in mean survival days of host at 100 mg/kg, sc administered 72 hrs after infection relative to control; type: functional; settings: route subcutaneous

Compound	Ratio (Plasmodium berghei [1])	Activity (Plasmodium berghei [4])	Activity (Plasmodium berghei [5])	Activity (Plasmodium gallinaceum [6])	MST (Plasmodium berghei [7]) [days]	Activity (Plasmodium gallinaceum [8])	MST (Plasmodium berghei [11]) [days]	Activity (Plasmodium gallinaceum [12])	MST (Plasmodium berghei [13]) [days]	MST (Plasmodium berghei [16]) [days]	SD90 (Plasmodium berghei [17]) [mg/kg/day]	Activity (Plasmodium gallinaceum [18])	Activity (Plasmodium berghei [19])	MST (Plasmodium berghei [21]) [days]	Activity (Plasmodium berghei [22])	Activity (Plasmodium berghei [24])	Activity (Plasmodium gallinaceum [25])	MST (Plasmodium gallinaceum [28]) [days]	Activity (Plasmodium berghei [29])	Activity (Plasmodium berghei [31])	further results
Nc1nc(N)c2cc(Sc3ccc(Cl)cc3)ccc2n1	340	Active	Active	Active	9.2	Active	9.2	Active	6	2.5	0.22	Active	Active	1.7	Active	Active	Active	16.7	inactive	Active	MIC (Staphylococcus aureus [2]): < 0.25 µg/mL; MST (Plasmodium berghei [3]): 25.8 days; MIC (Escherichia coli): 1 µg/mL (≈ 3.3 µM); Activity (Plasmodium falciparum [9]): >50%; MST (Plasmodium gallinaceum [10]): 22.2 days; Activity (Plasmodium falciparum [14]): >50%; MST (Plasmodium gallinaceum [15]): 17.9 days; MIC (Shigella sonnei): 5 µg/mL (≈ 16.5 µM); MIC (Enterococcus faecalis): < 0.25 µg/mL; MST (Plasmodium berghei [20]): 13.1 days; Activity (Plasmodium falciparum [23]): >50%; MST (Plasmodium gallinaceum [26]): 1.9 days; MIC (Staphylococcus aureus [27]): < 0.25 µg/mL; Activity (Plasmodium falciparum [30]): >50%; MIC (Pseudomonas aeruginosa): > 25 µg/mL
CC(=O)O.Nc1nc(N)c2cc(N(Cc3ccc(Cl)c(Cl)c3)N=O)ccc2n1	270	Active	Active	Active		Active	22.4	Active			0.27	Active				Active	Active	16.9			Activity (Plasmodium gallinaceum [32]): Active; Activity (Plasmodium gallinaceum [33]): Active; MST (Plasmodium gallinaceum [34]): 0 days; Activity (Gallus gallus): Toxic; Activity (Plasmodium berghei [35]): Active; Activity (Plasmodium gallinaceum [36]): Active; MST (Plasmodium gallinaceum [37]): 16.9 days; MST (Plasmodium gallinaceum [38]): 16.9 days; Activity (Plasmodium gallinaceum [39]): Active; MST (Plasmodium gallinaceum [40]): 0 days; Activity (Plasmodium gallinaceum [41]): Active; Activity (Plasmodium gallinaceum [42]): Active; Activity (Plasmodium gallinaceum [43]): Active
Nc1nc(N)c2cc(Sc3ccc(Cl)c(Cl)c3)ccc2n1		Active	Active		11.7		15.9		8.5	5.9			Active	0.9	Active	Active			inactive	Active	Activity (Plasmodium gallinaceum [44]): Active; Activity (Plasmodium berghei [35]): Active; Activity (Plasmodium berghei [45]): Active; MST (Plasmodium gallinaceum [46]): 20.8 days
